Patent publication US20040006070A1, “Intraspinal continuous infusion of midazolam hydrochloride for the treatment of pain” (priority 2002, published 2004)
Structures can show the parent of a compound that is named as a salt.

Test: Bloodwork: complete blood count, electrolytes, extended blood chemistry
Type: in vivo, sheep
Conditions: for Total Bili: ref 0.14-0.32; for Creatinine: ref 1-2.7; for Albumin: ref 2.4-3; for K+: ref 3.9-5.4; for Phos: ref 5-7.3; for Total Prot: ref 6-7.9
Experimental: Indirect blood pressure, pulse recording, pain testing (mechanical stimulus device, cold and warm water baths see description in procedure) and weight were taken on days 1, 3, 7, 15, 22, 29, 36, and 43. Venous blood samples (15 ml drawn from the jugular vein with Vacutainer brand blood collection tubes) for complete blood count, electrolytes, and extended blood chemistry were drawn on days 1, 15, and 43 (mild procedure only light hand restraint necessary).

## Cc1ncc2n1-c1ccc(Cl)cc1C(c1ccccc1F)=NC2 [Midazolam, midazolam hydrochloride]
Sheep #91, 15 mg/day, Day 1
  Glucose: 77 mg/dL
  Hct: 29.2%
  Hgb: 9.84 g/dL
  MCH: 10.7 pg
  MCHC: 33.7 g/dL
  MCV: 31.8 fL
  Na+: 149 mEq/l
  Platlet Count: 996000 µL⁻¹
  RBC: 9.18e+06 µL⁻¹
  WBC: 7090 µL⁻¹
  Total Bili: 0.1 mg/dL
  Creatinine: 1.6 mg/dL
  Albumin: 3.3 g/dL
  K+: 4.9 mEq/l
  Phos: 6.2 mg/dL
  Total Prot: 6.1 g/dL
Sheep #91, 15 mg/day, Day 15
  ALT: 10 U/L
  AST: 50 U/L
  Alk Phos: 162 U/L
  BUN: 13 mg/dL
  CPK: 56 U/L
  Cholesterol: 56 mg/dL
  Differential Count: Eosin: 12%
  Differential Count: Lymph: 44%
  Differential Count: Seg: 44%
  Gamma GT: 60 U/L
  Glucose: 83 mg/dL
  Hct: 31.8%
  Hgb: 10.8 g/dL
  MCH: 10.8 pg
  MCHC: 34.0 g/dL
  MCV: 31.8 fL
  Na+: 148 mEq/l
  Platlet Count: 848000 µL⁻¹
  RBC: 1e+07 µL⁻¹
  WBC: 5130 µL⁻¹
  Total Bili: 0.0 mg/dL
  Creatinine: 1.3 mg/dL
  Albumin: 3.3 g/dL
  K+: 4.4 mEq/l
  Phos: 6.1 mg/dL
  Total Prot: 6.2 g/dL
Sheep #91, 15 mg/day, Day 43
  ALT: 9 U/L
  AST: 63 U/L
  Alk Phos: 174 U/L
  BUN: 14 mg/dL
  CPK: 54 U/L
  Cholesterol: 66 mg/dL
  Differential Count: Eosin: 5%
  Differential Count: Lymph: 41%
  Differential Count: Mono: 2%
  Differential Count: Seg: 52%
  Gamma GT: 58 U/L
  Glucose: 81 mg/dL
  Hct: 36.3%
  Hgb: 12.2 g/dL
  MCH: 10.4 pg
  MCHC: 33.6 g/dL
  MCV: 30.9 fL
  Na+: 147 mEq/l
  Platlet Count: 805000 µL⁻¹
  RBC: 1.18e+07 µL⁻¹
  WBC: 5330 µL⁻¹
  Total Bili: 0.1 mg/dL
  Creatinine: 1.5 mg/dL
  Albumin: 3.6 g/dL
  K+: 4.6 mEq/l
  Phos: 7.3 mg/dL
  Total Prot: 6.4 g/dL
Sheep #457, 15 mg/day, Day 1
  ALT: 10 U/L
  AST: 85 U/L
  Alk Phos: 43 U/L
  BUN: 14 mg/dL
  CPK: 122 U/L
  Cholesterol: 59 mg/dL
  Differential Count: Eosin: 1%
  Differential Count: Lymph: 26%
  Differential Count: Seg: 73%
  Gamma GT: 59 U/L
  Glucose: 91 mg/dL
  Hct: 34.4%
  Hgb: 10.5 g/dL
  MCH: 10.2 pg
  MCHC: 30.5 g/dL
  MCV: 33.4 fL
  Na+: 147 mEq/l
  Platlet Count: 276000 µL⁻¹
  RBC: 8.68e+06 µL⁻¹
  WBC: 11900 µL⁻¹
  Total Bili: 0.1 mg/dL
  Creatinine: 1.1 mg/dL
  Albumin: 2.8 g/dL
  K+: 4.4 mEq/l
  Phos: 6.2 mg/dL
  Total Prot: 5.0 g/dL
Sheep #457, 15 mg/day, Day 15
  ALT: 14 U/L
  AST: 55 U/L
  Alk Phos: 93 U/L
  BUN: 20 mg/dL
  CPK: 73 U/L
  Cholesterol: 65 mg/dL
  Differential Count: Lymph: 71%
  Differential Count: Mono: 3%
  Differential Count: Seg: 24%
  Gamma GT: 72 U/L
  Glucose: 60 mg/dL
  Hct: 35.4%
  Hgb: 10.9 g/dL
  MCH: 10.6 pg
  MCHC: 30.8 g/dL
  MCV: 34.4 fL
  Na+: 150 mEq/l
  Platlet Count: 45000 µL⁻¹
  RBC: 8.72e+06 µL⁻¹
  WBC: 15400 µL⁻¹
  Total Bili: 0.1 mg/dL
  Creatinine: 1.1 mg/dL
  Albumin: 3.3 g/dL
  K+: 4.4 mEq/l
  Phos: 4.7 mg/dL
  Total Prot: 5.9 g/dL
Sheep #457, 15 mg/day, Day 43
  ALT: 12 U/L
  AST: 69 U/L
  Alk Phos: 105 U/L
  BUN: 15 mg/dL
  CPK: 51 U/L
  Cholesterol: 88 mg/dL
  Differential Count: Eosin: 7%
  Differential Count: Lymph: 68%
  Differential Count: Mono: 2%
  Differential Count: Seg: 23%
  Gamma GT: 61 U/L
  Glucose: 67 mg/dL
  Hct: 40.4%
  Hgb: 12.6 g/dL
  MCH: 11.5 pg
  MCHC: 31.2 g/dL
  MCV: 33.7 fL
  Na+: 145 mEq/l
  RBC: 1.098e+07 µL⁻¹
  WBC: 11200 µL⁻¹
  Total Bili: 0.1 mg/dL
  Creatinine: 1.4 mg/dL
  Albumin: 3.3 g/dL
  K+: 4.9 mEq/l
  Phos: 5.9 mg/dL
  Total Prot: 5.7 g/dL
Sheep #473, 3 mg/day, Day 1
  ALT: 22 U/L
  AST: 239 U/L
  Alk Phos: 41 U/L
  BUN: 10 mg/dL
  CPK: 392 U/L
  Cholesterol: 72 mg/dL
  Differential Count: Eosin: 1%
  Differential Count: Lymph: 39%
  Differential Count: Mono: 1%
  Differential Count: Seg: 59%
  Gamma GT: 69 U/L
  Glucose: 91 mg/dL
  Hct: 33.0%
  Hgb: 11.3 g/dL
  MCH: 9.7 pg
  MCHC: 32.2 G/dl
  MCV: 30.0 fL
  Na+: 153 mEq/l
  Platlet Count: 666000 µL⁻¹
  RBC: 1.1e+07 µL⁻¹
  WBC: 5800 µL⁻¹
  Total Bili: 0.2 mg/dL
  Creatinine: 1.0 mg/dL
  Albumin: 3.4 g/dL
  K+: 4.4 mEq/l
  Phos: 6.9 mg/dL
  Total Prot: 6.5 g/dL
Sheep #473, 3 mg/day, Day 15
  ALT: 1 U/L
  AST: 85 U/L
  Alk Phos: 59 U/L
  BUN: 10 mg/dL
  CPK: 98 U/L
  Cholesterol: 79 mg/dL
  Differential Count: Eosin: 6%
  Differential Count: Lymph: 53%
  Differential Count: Mono: 1%
  Differential Count: Seg: 40%
  Gamma GT: 59 U/L
  Glucose: 74 mg/dL
  Hct: 41.0%
  Hgb: 12.9 g/dL
  MCH: 9.3 pg
  MCHC: 31.5 G/dl
  MCV: 29.6 fL
  Na+: 152 mEq/l
  Platlet Count: 336000 µL⁻¹
  RBC: 1.25e+07 µL⁻¹
  WBC: 5100 µL⁻¹
  Total Bili: 0.1 mg/dL
  Creatinine: 1.2 mg/dL
  Albumin: 3.7 g/dL
  K+: 4.6 mEq/l
  Phos: 5.8 mg/dL
  Total Prot: 6.7 g/dL
Sheep #473, 3 mg/day, Day 43
  ALT: 8 U/L
  AST: 61 U/L
  Alk Phos: 73 U/L
  BUN: 15 mg/dL
  CPK: 82 U/L
  Cholesterol: 78 mg/dL
  Differential Count: Eosin: 2%
  Differential Count: Lymph: 60%
  Differential Count: Mono: 2%
  Differential Count: Seg: 36%
  Gamma GT: 58 U/L
  Glucose: 59 mg/dL
  Hct: 41.5%
  Hgb: 12.9 g/dL
  MCH: 9.4 pg
  MCHC: 31.1 G/dl
  MCV: 30.2 fL
  Na+: 150 mEq/l
  Platlet Count: 263000 µL⁻¹
  RBC: 1.373e+07 µL⁻¹
  WBC: 3400 µL⁻¹
  Total Bili: 0.0 mg/dL
  Creatinine: 1.5 mg/dL
  Albumin: 3.4 g/dL
  K+: 5.6 mEq/l
  Phos: 5.3 mg/dL
  Total Prot: 6.4 g/dL
Sheep #498, 10 mg/day, Day 1
  ALT: 8.0 U/L
  AST: 95 U/L
  Alk Phos: 45 U/L
  BUN: 9.0 Mg/dl
  CPK: 89 U/L
  Cholesterol: 63 Mg/dl
  Differential Count: Atyp lym: 2%
  Differential Count: Baso: 1%
  Differential Count: Lymph: 28%
  Differential Count: Mono: 1%
  Differential Count: Seg: 68%
  Gamma GT: 74 U/L
  Glucose: 131 mg/dL
  Hct: 31.0%
  Hgb: 11.1 g/dL
  MCH: 9.6 pg
  MCHC: 32.0 g/dL
  MCV: 30.1 fL
  Na+: 151 mEq/l
  Platlet Count: 592000 µL⁻¹
  RBC: 1.153e+07 µL⁻¹
  WBC: 6000 µL⁻¹
  Total Bili: 0.2 mg/dL
  Creatinine: 1.6 mg/dL
  Albumin: 3.9 g/dL
  K+: 4.4 mEq/l
  Phos: 3.8 Mg/dl
  Total Prot: 6.4 g/dL
Sheep #498, 10 mg/day, Day 15
  ALT: 7.0 U/L
  AST: 86 U/L
  Alk Phos: 87 U/L
  BUN: 16 Mg/dl
  CPK: 154 U/L
  Cholesterol: 63 Mg/dl
  Differential Count: Bands: 8%
  Differential Count: Lymph: 66%
  Differential Count: Mono: 3%
  Differential Count: Seg: 23%
  Gamma GT: 90 U/L
  Glucose: 78 mg/dL
  Hct: 44.8%
  Hgb: 13.3 g/dL
  MCH: 9.2 pg
  MCHC: 29.7 g/dL
  MCV: 31.1 fL
  Na+: 151 mEq/l
  Platlet Count: 42000 µL⁻¹
  RBC: 1.439e+07 µL⁻¹
  WBC: 8600 µL⁻¹
  Total Bili: 0.1 mg/dL
  Creatinine: 1.8 mg/dL
  Albumin: 3.4 g/dL
  K+: 5.1 mEq/l
  Phos: 6.4 Mg/dl
  Total Prot: 6.7 g/dL
Sheep #498, 10 mg/day, Day 43
  ALT: 8.0 U/L
  AST: 89 U/L
  Alk Phos: 87 U/L
  BUN: 13 Mg/dl
  CPK: 203 U/L
  Cholesterol: 67 Mg/dl
  Differential Count: Eosin: 3%
  Differential Count: Lymph: 63%
  Differential Count: Mono: 1%
  Differential Count: Seg: 33%
  Gamma GT: 65 U/L
  Glucose: 77 mg/dL
  Hct: 34.7%
  Hgb: 10.5 g/dL
